For one assay, the system named is CA1 cells. The assay can be described thus: Plateau potentials evoked by glutamate photolysis on CA1 cell dendrites in hippocampal slice cultures. Type of assay: cell-based. The settings on record: compared with control CA1 cells. An excerpt:
It may be expected based on previous studies in the laboratory of the present inventor that partial denervation and removal of the majority of the excitatory input to area CA1 would result in a quiescent population of cells. In fact, local stimulation within area CA1 triggers prolonged, abnormally oscillatory synaptic responses in lesioned cultures that are never seen in normally innervated tissue (FIG. 1, top row), but only with a delay of 7 or more days after the injury (Wei et al., 2003). The reason is […] that denervation increases glutamate receptor expression in CA1 cells, akin to the well known phenomenon of denervation suprasensitivity in muscle. To confirm, the laboratory of the present inventor used photolysis of caged glutamate to compare the responses of CA1 cell dendrites in lesioned and unlesioned cultures.
In control cultures, distal, terminal dendritic branches of CA1 cells respond to weak photolysis of glutamate with passive subthreshold depolarizations. Stronger glutamate applications, however, trigger all-or-none Ca^2+-sensitive responses that are called plateau potentials (Wei et al., 2001). […] Plateau potentials, in contrast, are accompanied by Ca^2+ signals that can be seen throughout the stimulated dendrite within milliseconds, indicative of their rapid electrical propagation along the entire stimulated branch.

For assay [1], the system named is animals with lesioned spinothalamic tracts. The assay can be described thus: von Frey filament test for allodynia after spinothalamic tract transection. Type of assay: in vivo, rat. The conditions noted are these: 500 mg/kg intraperitoneally; FIG. 4B. On the procedure: (§1) Spinothalamic tract transection. The spinothalamic tract is transected bilaterally at the level of the thoracic/lumbar border, thereby severing the ascending pathways conveying somatosensory, thermal and nociceptive information to the cortex via the thalamus. Male, adult Sprague-Dawley rats (ca. 200 gm) are anesthetized with pentobarbital and a T8 laminectomy is performed. The dura is opened with the tip of a 21 g. syringe needle to expose the spinal cord. The spinal cord is then lifted and rotated using a fine, sterile glass rod, and the ventral lateral pain pathways are severed electrolytically using a 1 MΩ sharpened tungsten needle and a 45 V pulse for 1 min. The lesion is packed with a small piece of sterile gelfoam. The overlying muscles and skin are closed and sutured, and the animal is allowed to recover on a 37° C. heating pad. Sham-operated controls undergo a laminectomy without dural penetration or spinal injury. This spinal transection procedure is a useful model of central pain syndrome where increased pain sensitivity and allodynia were observed. At various times after the lesion, standard behavioral tests were completed to assay the threshold for a stimulus to be perceived as painful, and allodynia was performed on awake, behaving animals. […] The paw withdrawal latency is automatically recorded when the rat withdraws its paw from the stimulus. […]

For assay [2] the test system is unchanged. The experiment in a line: Paw withdrawal latency test for hyperalgesia after spinothalamic tract transection. Type of assay: in vivo, rat. The conditions noted are these: 500 mg/kg intraperitoneally; FIG. 4A. On the procedure:
as §1

This note sets out measurements from US20090143450A1, “METHOD FOR TREATING CENTRAL PAIN SYNDROM OR FOR INDUCING CENTRALLY GENERATED PAIN IN AN ANIMAL MODEL” (UNIVERSITY OF MARYLAND, BALTIMORE, priority 2005, published 2009).

The structures appear in SMILES notation.

In the case of `O=C(O)CN(CC(=O)O)c1ccccc1OCCOc1ccccc1N(CC(=O)O)CC(=O)O` [BAPTA], in the assay with CA1 cells, the “prolongation of plateau potentials in denervated CA1 cells” value is “occluded”.

In the case of `CC[N+](CC)(CC)CC` [TEA], the “prolongation of plateau potentials in denervated CA1 cells” value in the assay with CA1 cells is “occluded”.

With `CCC1(C)CC(=O)NC1=O` (stereo not shown) [ethosuximide, 2-methyl-2-ethyl succinimide], the “allodynia (von Frey's test)” value in assay [1] is “reduced transiently”. Moreover, in assay [2], the “hyperalgesia (paw withdrawal latency)” value is “reduced transiently”.
